Residues, ends and D or L forms follow the SMILES beside them. *: point of attachment. Cbz = O=C(OCc1ccccc1)*

For one data set, the system named is myc-CKX1. Nature of the data set: myc-CKX1 level in seedlings after proteasome inhibitor treatment (immunoblotting and densitometry). The data set is classed as in vivo, Arabidopsis thaliana. Particulars: seedlings treated with 100 μM MG132. Here is the method: FIG. 4. ROCK1 regulates ERQC and CKX protein stability. (A) N-glycosylation status of myc-CKX1 protein in wild-type and rock1 seedlings. Protein extracts were treated with PNGase F or EndoH and the size of myc-CKX1 was compared to mock-treated control by SDS-PAGE and immunoblot with anti-myc antibody. (B) The loss of GnT-I activity in cgl1 mutants has no influence on the shoot phenotype of 35S:CKX1 plants (21 dag). (C) The level of myc-CKX1 is decreased in rock1 compared to wild type. Total protein extracts were analyzed by immunoblot with anti-myc antibody. Coomassie blue staining of Rubisco large subunit (RbcL) was used as loading control. Relative densitometric analysis of the myc-CKX1 signal is shown. […] Protein extracts were prepared from 7-d-old seedlings treated with mock or 100 μM CHX for indicated times and analyzed by immunoblotting. […] Seedlings were treated with 100 μM MG132 and myc-CKX1 analyzed by immunoblotting and densitometry. […] (F) Quantitative real-time PCR analysis of UPR genes in shoots of soil-grown seedlings 9 dag measured by. […]
Proteins were extracted and the concentration determined as described for the CKX activity assay. […] Intensities were normalized to the loading control and calculated relative to wild type samples. […]
To test CKX1 turnover, we analyzed myc-CKX1 levels in the presence of the translation inhibitor cycloheximide (CHX). […]
A general note: In western blotting, separated proteins are transferred to a membrane and probed.

A further data set addresses T1, ROCK1 (Arabidopsis thaliana, UniProt Q8LES0).
T1 construct: FLAG (N); made in house; host or cells: Saccharomyces cerevisiae BY4741 (microsomal vesicles)
T1 sequence (Q8LES0 1-325): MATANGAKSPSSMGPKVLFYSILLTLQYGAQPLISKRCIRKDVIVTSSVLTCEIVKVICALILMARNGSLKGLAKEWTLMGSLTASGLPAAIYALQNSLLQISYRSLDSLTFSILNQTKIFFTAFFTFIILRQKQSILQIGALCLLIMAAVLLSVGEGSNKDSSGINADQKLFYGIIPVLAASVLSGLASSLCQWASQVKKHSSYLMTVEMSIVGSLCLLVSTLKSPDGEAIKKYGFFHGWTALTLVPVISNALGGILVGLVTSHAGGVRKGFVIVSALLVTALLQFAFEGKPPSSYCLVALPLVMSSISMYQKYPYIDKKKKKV
Nature of the data set: Nucleotide-sugar transport assay: uptake of radiolabeled nucleotide sugars into yeast microsomes expressing FLAG-ROCK1. The data set is classed as biochemical. Particulars: ER/Golgi microsomal vesicles from S. cerevisiae expressing FLAG-ROCK1 vs empty vector control.

The subject of the next data set is ipt3,5,7. Nature of the data set: Restoration of growth of ipt3,5,7 mutant plants by CKX inhibitor application. The data set is classed as in vivo, Arabidopsis thaliana. Particulars: shoots sprayed with 10 μM INCYDE every 3 days; compared with suppression by rock1-1. Here is the method: If not otherwise denoted, Arabidopsis thaliana Columbia-0 was used as the wild type. The T-DNA insertion lines rock1-2 (SALK_001259) and rock1-3 (901C01) were used. The following lines were described previously: 35S:CKX1-11, 35S:CKX2-9, 35S:CKX3-9, 35S:CKX7-GFP-26, ahk2-5, ahk3-7, cre1-2, atipt1, atipt3-2, atipt5-2, atipt7-1, cgl1 C6 (cgl1-2) and ARR5:GUS. Plants were grown in vitro on half-strength Murashige and Skoog (MS) medium containing 10 g/L sucrose, 0.5 g/L MES and 8 g/L phytagel. For analysis of root growth, 12 g/L phytagel and cytokinin or DMSO as solvent control were added to the medium. Plants were grown under long day conditions (16 h light/8 h dark; 21/18° C.) in vitro or in the green house. Shoots of soil grown plants were sprayed with 10 μM INCYDE and 0.01% Silwet L-77 every 3 days starting 3 days after germination. The binary vector constructs were transformed into Arabidopsis plants by Agrobacterium tumefaciens (strain GV3101:pMP90) mediated floral dip method.
To gain information about the specificity of rock1 in suppressing CKX overexpression phenotypes, rock1-1 was introgressed into 35S:CKX2, 35S:CKX3 and 35S:CKX7 plants.

Experimental for ROCK1: (B) Measurement of ROCK1-mediated uptake of radiolabeled nucleotide sugars into yeast microsomes expressing FLAG-ROCK1 or empty vector. Means±SEM (n=3; *, P<0.05, t test).
Nucleotide-sugar transport into Saccharomyces cerevisiae (BY4741) transformed with the construct pYEScupFLAGK-ROCK1 or the empty vector control was measured as described by Ashikov et al. (2005): “cultured cells were harvested by centrifugation (5 min at 1,500×g) and washed twice with ice-cold 10 mm NaN3. The weight of wet cells was measured, and cells were resuspended in zymolyase buffer (3 ml/g of cells; 50 mm potassium phosphate, pH 7.5; 1.4 m sorbitol; 10 mm NaN3 and 0.3% β-mercaptoethanol) containing 0.6 mg/ml of zymolyase-100T. The suspension was incubated for 20 min at 30° C. Spheroplasts were collected by centrifugation (5 min at 1,000×g) and resuspended in lysis buffer (4 ml/g of cells; 10 mm Hepes-Tris, pH 7.4; 0.8 m sorbitol; 1 mm EDTA) containing complete EDTA-free protease inhibitor mixture (Roche Applied Science). After homogenization with 10 strokes in a Dounce homogenizer, the lysate was centrifuged (5 min, 1,500×g) to remove unlysed cells and debris. Endoplasmic reticulum- and Golgi-rich fractions were then obtained by centrifugation at 10,000×g for 10 min (endoplasmic reticulum) and 100,000×g for 1 h (Golgi). The 100,000×g pellet was carefully resuspended in lysis buffer (0.8 ml/g of cells), and aliquots of 100 μl were snap-frozen and kept at −80° C. Protein concentrations were determined using the BCA™ kit (Pierce). For transport assay reactions, equal volumes (50 μl of each) of 2 mm radioactive nucleotide sugar (2,000-4,000 dpm/pmol) in assay buffer (10 mm Tris-HCl, pH 7.0; 0.8 m sorbitol; 2 mm MgCl2) and vesicle preparation (equivalent to 75-100 μg of protein) were incubated for 30 s at 30° C. Reactions were stopped by dilution with 1 ml of assay buffer containing 1 μm respective cold nucleotide sugar. The separation of vesicles and nucleotide sugars was achieved by filtration trough nitrocellulose filter (MF™ membrane filters Millipore, Bedford, Mass.). Filters were washed three times with 2 ml of ice-cold assay buffer containing the corresponding cold nucleotide sugar at a concentration of 1 μm, and radioactivity associated with the vesicular fraction was measured by liquid scintillation in a LS 5000CE counter (Beckman Coulter). Golgi vesicles from yeast cells transformed with an empty vector were used to measure endogenous transport.”
To directly test the transport specificity of ROCK1, a FLAG-tagged ROCK1 protein was expressed in Saccharomyces cerevisiae, which has, with the exception of GDP-Man, a low background for most nucleotide sugar transport activities and is commonly used as a heterologous test system for NSTs. […]

As to `CC(C)C[C@@H](C=O)NC(=O)[C@H](CC(C)C)NC(=O)[C@H](CC(C)C)NC(=O)OCc1ccccc1` [MG132] (Cbz-Leu-Leu-Leu-aldehyde), the “effect on myc-CKX1 levels in rock1 background” value in the data set with myc-CKX1 (rock1 background) is “strongly stabilized myc-CKX1 levels”. In addition, the “effect on level of myc-CKX1 in wild type” value with myc-CKX1 (wild type background) is recorded as “increased the level of myc-CKX1”. In the case of `CC(=O)N[C@H]1[C@@H](OP(=O)(O)OP(=O)(O)OC[C@H]2O[C@@H](n3ccc(=O)[nH]c3=O)[C@H](O)[C@@H]2O)O[C@H](CO)[C@H](O)[C@@H]1O` [UDP-GalNAc, UDP-N-acetylgalactosamine], the “uptake in vesicles expressing ROCK1, increased in comparison to the control” value on ROCK1 is 7 fold. As to `COc1cccc(Nc2nc(Cl)nc3nc[nH]c23)c1` [chemical inhibitor of CKX activity], the “restoration of ipt3,5,7 growth” value in the data set with ipt3,5,7 is given as “comparable restoration of ipt3,5,7 growth”. Consider `Nc1nc2c(ncn2[C@@H]2O[C@H](COP(=O)(O)OP(=O)(O)O[C@H]3O[C@H](CO)[C@@H](O)[C@H](O)[C@@H]3O)[C@@H](O)[C@H]2O)c(=O)[nH]1` [GDP-Man], for which the “relative transport in ROCK1 microsomes versus empty vector control (in words)” value on ROCK1 is “lowered”. Consider `CC1OC(OP(=O)(O)OP(=O)(O)OCC2OC(n3cnc4c(=O)[nH]c(N)nc43)C(O)C2O)C(O)C(O)C1O` (stereo not shown) [GDP-Fuc], for which the “relative transport in ROCK1 microsomes versus empty vector control (in words)” value on ROCK1 is “lowered”. As to `CC(=O)N[C@H]1[C@@H](OP(=O)(O)OP(=O)(O)OC[C@H]2O[C@@H](n3ccc(=O)[nH]c3=O)[C@H](O)[C@@H]2O)O[C@H](CO)[C@@H](O)[C@@H]1O` [UDP-GlcNAc, UDP-N-acetylglucosamine], the “uptake in vesicles expressing ROCK1, increased in comparison to the control” value at ROCK1 came to 3 fold.
